Values of other authors, collected in patent publication US11273077B2, “Wound packing material comprising chemoeffector” (priority 2015, dated 2022).

Experiments:
[1] = test system: Pseudomonas Aeruginosa
[2] = test system: Enterobacteria
[3] = test system: Escherichia Coli; conditions: Tar and Tsr receptor mediated

SMILES | specificity of chemotaxis toward intermediates of amino acid metabolism [1] | ligand specificity as chemoattractant [2] | concentration that induces E. coli chemotaxis [3]
NCCCC(=O)O [GABA, gamma-aminobutyrate] | high specificity | – | –
N[C@@H](CO)C(=O)O [L-serine] | – | high ligand specificity | nanomolar range
